Columns and labels:
[1] = test system: CAL-148; experiment: cells; type: functional, cell-based; conditions: Homo sapiens
Description: SANGER: Inhibition of human CAL-148 cell growth in a cell viability assay.

[2] = test system: NCI-H1417; experiment: cells; type: functional, cell-based; conditions: Homo sapiens;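 also: human NCI-H1417 cells, growth inhibition determined with a cell viability readout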
Description: SANGER: Inhibition of human NCI-H1417 cell growth in a cell viability assay.

[3] = test system: NCI-H64; experiment: cells; type: functional, cell-based; conditions: Homo sapiens;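 also: growth inhibition of NCI-H64 cells, read out with a cell viability assay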
Description: SANGER: Inhibition of human NCI-H64 cell growth in a cell viability assay.

[4] = test system: NCI-H1522; experiment: cells; type: functional, cell-based; conditions: Homo sapiens;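 also: growth inhibition of NCI-H1522 cells, read out with a cell viability assay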
Description: SANGER: Inhibition of human NCI-H1522 cell growth in a cell viability assay.

[5] = test system: CMK; experiment: cells; type: functional, cell-based; conditions: Homo sapiens;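 also: growth inhibition of CMK cells, read out as cell viability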
Description: SANGER: Inhibition of human CMK cell growth in a cell viability assay.

[6] = test system: BL-70; experiment: SANGER: Inhibition of human BL-70 cell growth in a cell viability assay.; type: functional, cell-based
[7] = test system: NB7; experiment: cells; type: functional, cell-based; conditions: Homo sapiens;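 also: growth inhibition of NB7 cells, read out with a cell viability assay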
Description: SANGER: Inhibition of human NB7 cell growth in a cell viability assay.

[8] = test system: JIYOYE; experiment: cells; type: functional, cell-based; conditions: Homo sapiens
Description: SANGER: Inhibition of human JiyoyeP-2003 cell growth in a cell viability assay.

[9] = test system: L-540; experiment: cells; type: functional, cell-based; conditions: Homo sapiens;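 also: growth inhibition of the human L-540 cell line, read out with a viability assay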
Description: SANGER: Inhibition of human L-540 cell growth in a cell viability assay.

[10] = test system: LP-1; experiment: cells; type: functional, cell-based; conditions: Homo sapiens;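 also: growth inhibition of human LP-1 cells, with the read-out taken from a cell viability assay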
Description: SANGER: Inhibition of human LP-1 cell growth in a cell viability assay.

[11] = test system: NALM-6; experiment: cells; type: functional, cell-based; conditions: Homo sapiens;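 also: growth inhibition of NALM-6 cells, read out with a cell viability assay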
Description: SANGER: Inhibition of human NALM-6 cell growth in a cell viability assay.

[12] = test system: IMR-5; experiment: cells; type: functional, cell-based; conditions: Homo sapiens;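 also: growth inhibition of human IMR-5 cells, read out with a cell viability assay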
Description: SANGER: Inhibition of human IMR-5 cell growth in a cell viability assay.

[13] = test system: LB647-SCLC; experiment: cells; type: functional, cell-based; conditions: Homo sapiens;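 also: cell growth inhibition, read out by a viability assay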
Description: SANGER: Inhibition of human LB647-SCLC cell growth in a cell viability assay.

[14] = test system: CESS; experiment: SANGER: Inhibition of human CESS cell growth in a cell viability assay.; type: functional, cell-based
[15] = test system: RT-112; experiment: cells; type: functional, cell-based; conditions: Homo sapiens
Description: SANGER: Inhibition of human RT-112 cell growth in a cell viability assay.

[16] = test system: COLO-741; experiment: cells; type: functional, cell-based; conditions: Homo sapiens
Description: SANGER: Inhibition of human COLO-741 cell growth in a cell viability assay.

[17] = test system: HuCCT-1; experiment: cells; type: functional, cell-based, HuCCT1; conditions: Homo sapiens;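 also: growth inhibition of HuCCT-1 cells, read out by a cell viability assay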
Description: SANGER: Inhibition of human HuCCT1 cell growth in a cell viability assay.

[18] = test system: NCI-H441; experiment: cells; type: functional, cell-based; conditions: Homo sapiens;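 also: growth inhibition of NCI-H441 cells, read out with a cell viability assay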
Description: SANGER: Inhibition of human NCI-H441 cell growth in a cell viability assay.

[19] = test system: HEC-1; experiment: cells; type: functional, cell-based; conditions: Homo sapiens;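 also: growth inhibition of the cell line, read out with a cell viability assay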
Description: SANGER: Inhibition of human HEC-1 cell growth in a cell viability assay.

[20] = test system: KYSE-520 cell line; experiment: cells; type: functional, cell-based; conditions: Homo sapiens;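 also: growth inhibition of human KYSE-520 cells, read out with a viability assay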
Description: SANGER: Inhibition of human KYSE-520 cell growth in a cell viability assay.

[21] = test system: KYSE-70 cell line; experiment: cells; type: functional, cell-based; conditions: Homo sapiens;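 also: cell viability assay read-out, with IC50 expressing suppression of KYSE-70 cell growth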
Description: SANGER: Inhibition of human KYSE-70 cell growth in a cell viability assay.

[22] = test system: SK-LU-1; experiment: cells; type: functional, cell-based; conditions: Homo sapiens;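 also: cell viability assay measuring growth inhibition of human SK-LU-1 cells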
Description: SANGER: Inhibition of human SK-LU-1 cell growth in a cell viability assay.

[23] = test system: OVCAR-8; experiment: cells; type: functional, cell-based; conditions: Homo sapiens;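 also: growth inhibition of human OVCAR-8 cells, read out by a cell viability assay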
Description: SANGER: Inhibition of human OVCAR-8 cell growth in a cell viability assay.

[24] = test system: Daoy; experiment: cells; type: functional, cell-based; conditions: Homo sapiens;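 also: daoy cell growth inhibition, read out as cell viability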
Description: SANGER: Inhibition of human Daoy cell growth in a cell viability assay.

[25] = test system: A204; experiment: cells; type: functional, cell-based; conditions: Homo sapiens;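 also: growth inhibition of human A204 cells, read out with a cell viability assay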
Description: SANGER: Inhibition of human A204 cell growth in a cell viability assay.

[26] = test system: DK-MG; experiment: cells; type: functional, cell-based; conditions: Homo sapiens;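 also: growth inhibition of DK-MG cells, read out with a cell viability assay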
Description: SANGER: Inhibition of human DK-MG cell growth in a cell viability assay.

[27] = test system: P12-Ichikawa; experiment: cells; type: functional, cell-based; conditions: Homo sapiens
[28] = test system: CHP-212; experiment: cells; type: functional, cell-based; conditions: Homo sapiens
Description: SANGER: Inhibition of human CHP-212 cell growth in a cell viability assay.

[29] = test system: OVCAR-3; experiment: cells; type: functional, cell-based; conditions: Homo sapiens;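 also: growth inhibition of human OVCAR-3 cells, determined by a cell viability assay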
Description: SANGER: Inhibition of human OVCAR-3 cell growth in a cell viability assay.

[30] = test system: OAW-28; experiment: cells; type: functional, cell-based; conditions: Homo sapiens;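 also: growth inhibition of OAW-28 cells, read out with a cell viability assay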
Description: SANGER: Inhibition of human OAW-28 cell growth in a cell viability assay.

[31] = test system: SW1573; experiment: cells; type: functional, cell-based; conditions: Homo sapiens;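 also: growth inhibition of SW1573 cells, read out with a cell viability assay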
Description: SANGER: Inhibition of human SW1573 cell growth in a cell viability assay.

[32] = test system: SAOS-2; experiment: cells; type: functional, cell-based; conditions: Homo sapiens;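 also: growth inhibition of human Saos-2 cells determined by a cell viability assay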
Description: SANGER: Inhibition of human Saos-2 cell growth in a cell viability assay.

[33] = test system: UACC-62; experiment: cells; type: functional, cell-based; conditions: Homo sapiens;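 also: growth inhibition of human UACC-62 cells, read out by a cell viability assay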
Description: SANGER: Inhibition of human UACC-62 cell growth in a cell viability assay.

[34] = test system: SK-MES-1; experiment: cells; type: functional, cell-based; conditions: Homo sapiens;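 also: growth inhibition of human SK-MES-1 cells, read out with a cell viability assay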
Description: SANGER: Inhibition of human SK-MES-1 cell growth in a cell viability assay.

[35] = test system: PFSK-1; experiment: cells; type: functional, cell-based; conditions: Homo sapiens;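 also: cell viability assay measuring how strongly compounds suppress growth of human PFSK-1 cells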
Description: SANGER: Inhibition of human PFSK-1 cell growth in a cell viability assay.

[36] = test system: MDA-MB-175-VII; experiment: cells; type: functional, cell-based; conditions: Homo sapiens
[37] = test system: HCC70; experiment: cells; type: functional, cell-based; conditions: Homo sapiens;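 also: cell viability assay measuring how strongly the compound suppresses proliferation of HCC70 cells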
Description: SANGER: Inhibition of human HCC70 cell growth in a cell viability assay.

[38] = test system: PC-3; experiment: cells; type: functional, cell-based; conditions: Homo sapiens;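 also: cell viability assay measuring growth inhibition of PC-3 cells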
Description: SANGER: Inhibition of human PC-3 cell growth in a cell viability assay.

[39] = test system: MCF7; experiment: cells; type: functional, cell-based; conditions: Homo sapiens;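 also: growth inhibition of human MCF7 cells, read out with a cell viability assay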
Description: SANGER: Inhibition of human MCF7 cell growth in a cell viability assay.

[40] = test system: MDA-MB-231; experiment: cells; type: functional, cell-based; conditions: Homo sapiens
Description: SANGER: Inhibition of human MDA-MB-231 cell growth in a cell viability assay.

[41] = test system: RVH-421; experiment: cells; type: functional, cell-based; conditions: Homo sapiens
Description: SANGER: Inhibition of human RVH-421 cell growth in a cell viability assay.

[42] = test system: S-117; experiment: cells; type: functional, cell-based; conditions: Homo sapiens
Description: SANGER: Inhibition of human S-117 cell growth in a cell viability assay.

[43] = test system: RPMI-2650; experiment: cells; type: functional, cell-based; conditions: Homo sapiens
Description: SANGER: Inhibition of human RPMI-2650 cell growth in a cell viability assay.

[44] = test system: MIA PaCa-2; experiment: cells; type: functional, cell-based; conditions: Homo sapiens;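 also: growth inhibition of MIA PaCa-2 cells, read out with a cell viability assay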
Description: SANGER: Inhibition of human MIA-PaCa-2 cell growth in a cell viability assay.

[45] = test system: MKN-45; experiment: cells; type: functional, cell-based; conditions: Homo sapiens;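 also: growth inhibition of human MKN-45 cells, measured with a cell viability assay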
Description: SANGER: Inhibition of human MKN45 cell growth in a cell viability assay.

[46] = test system: MG-63; experiment: cells; type: functional, cell-based; conditions: Homo sapiens;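 also: growth inhibition of human MG-63 cells, read out with a cell viability assay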
Description: SANGER: Inhibition of human MG-63 cell growth in a cell viability assay.

[47] = test system: SW756; experiment: cells; type: functional, cell-based; conditions: Homo sapiens;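 also: growth inhibition of human SW756 cells, read out with a cell viability assay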
Description: SANGER: Inhibition of human SW756 cell growth in a cell viability assay.

[48] = test system: MC-IXC; experiment: cells; type: functional, cell-based; conditions: Homo sapiens;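 also: growth inhibition of MC-IXC cells, read out with a cell viability assay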
Description: SANGER: Inhibition of human MC-IXC cell growth in a cell viability assay.

[49] = test system: C32; experiment: cells; type: functional, cell-based; conditions: Homo sapiens;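 also: cell viability assay, with IC50 reflecting inhibition of C32 cell growth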
Description: SANGER: Inhibition of human C32 cell growth in a cell viability assay.

[50] = test system: TCC-SUP; experiment: cells; type: functional, cell-based; conditions: Homo sapiens;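 also: growth inhibition of TCC-SUP cells, read out with a cell viability assay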
Description: SANGER: Inhibition of human TCCSUP cell growth in a cell viability assay.

[51] = test system: ASPC1; experiment: cells; type: functional, cell-based; conditions: Homo sapiens;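 also: growth inhibition of AsPC-1 cells, read out with a cell viability assay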
Description: SANGER: Inhibition of human AsPC-1 cell growth in a cell viability assay.

[52] = test system: LCLC-103H cell line; experiment: cells; type: functional, cell-based; conditions: Homo sapiens
Description: SANGER: Inhibition of human LCLC-103H cell growth in a cell viability assay.

[53] = test system: M14; experiment: cells; type: functional, cell-based; conditions: Homo sapiens;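 also: growth inhibition of M14 cells, read out with a cell viability assay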
Description: SANGER: Inhibition of human M14 cell growth in a cell viability assay.

[54] = test system: CAMA-1; experiment: cells; type: functional, cell-based; conditions: Homo sapiens;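 also: growth inhibition of CAMA-1 cells, read out with a cell viability assay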
Description: SANGER: Inhibition of human CAMA-1 cell growth in a cell viability assay.

[55] = test system: NCI-H2122; experiment: cells; type: functional, cell-based; conditions: Homo sapiens;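 also: growth inhibition of the cells, read out with a cell viability assay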
Description: SANGER: Inhibition of human NCI-H2122 cell growth in a cell viability assay.

[56] = test system: CAKI-1; experiment: cells; type: functional, cell-based; conditions: Homo sapiens;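 also: growth inhibition of CAKI-1 cells, measured by a cell viability assay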
Description: SANGER: Inhibition of human CAKI-1 cell growth in a cell viability assay.

[57] = test system: KP-N-YN; experiment: cells; type: functional, cell-based; conditions: Homo sapiens;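 also: growth inhibition of KP-N-YN cells, read out with a cell viability assay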
Description: SANGER: Inhibition of human KP-N-YN cell growth in a cell viability assay.

[58] = test system: NCI-H810; experiment: cells; type: functional, cell-based; conditions: Homo sapiens;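 also: IC50 reflects inhibition of cancer cell line growth, read out with a cell viability assay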
Description: SANGER: Inhibition of human NCI-H810 cell growth in a cell viability assay.

[59] = test system: MDA-MB-157; experiment: cells; type: functional, cell-based; conditions: Homo sapiens
Description: SANGER: Inhibition of human MDA-MB-157 cell growth in a cell viability assay.

[60] = test system: HCC38; experiment: cells; type: functional, cell-based; conditions: Homo sapiens;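 also: cell viability assay on the human HCC38 cell line, with IC50 marking the concentration that inhibits cell growth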
Description: SANGER: Inhibition of human HCC38 cell growth in a cell viability assay.

[61] = test system: AN3-CA; experiment: cells; type: functional, cell-based; conditions: Homo sapiens;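 also: growth inhibition of human AN3-CA cells measured by a cell viability assay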
Description: SANGER: Inhibition of human AN3-CA cell growth in a cell viability assay.

[62] = test system: CAL-85-1; experiment: cells; type: functional, cell-based; conditions: Homo sapiens;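 also: growth inhibition of human CAL-85-1 cells, read out with a cell viability assay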
Description: SANGER: Inhibition of human CAL-85-1 cell growth in a cell viability assay.

[63] = test system: G-402; experiment: cells; type: functional, cell-based; conditions: Homo sapiens
Description: SANGER: Inhibition of human G-402 cell growth in a cell viability assay.

[64] = test system: UO-31; experiment: cells; type: functional, cell-based; conditions: Homo sapiens
Description: SANGER: Inhibition of human U031 cell growth in a cell viability assay.

SMILES: CCNc1cc(N[C@H]2CC[C@@H](O)CC2)nc(Nc2ccc3c(ccn3Cc3ccccc3)c2)n1
- IC50 [1]: > 5.12 µM
- IC50 [2]: > 5.12 µM
- IC50 [3]: > 5.12 µM
- IC50 [4]: > 5.12 µM
- IC50 [5]: > 5.12 µM
- IC50 [6]: > 5.12 µM
- IC50 [7]: > 5.12 µM
- IC50 [8]: > 5.12 µM
- IC50 [9]: > 5.12 µM
- IC50 [10]: > 5.12 µM
- IC50 [11]: 4.98 µM
- IC50 [12]: > 5.12 µM
- IC50 [13]: > 5.12 µM
- IC50 [14]: > 5.12 µM

SMILES: Cn1cc(/C=C2\C(=O)Nc3cccnc32)c2ccccc21
- IC50 [15]: > 2 µM
- IC50 [16]: > 2 µM
- IC50 [17]: > 2 µM
- IC50 [18]: > 2 µM
- IC50 [19]: > 2 µM
- IC50 [20]: > 2 µM
- IC50 [21]: > 2 µM
- IC50 [22]: > 2 µM
- IC50 [23]: > 2 µM
- IC50 [24]: > 2 µM
- IC50 [25]: > 2 µM
- IC50 [26]: > 2 µM
- IC50 [27]: > 2 µM
- IC50 [28]: > 2 µM
- IC50 [29]: > 2 µM
- IC50 [30]: > 2 µM
- IC50 [7]: 1.98 µM
- IC50 [31]: > 2 µM
- IC50 [32]: > 2 µM
- IC50 [33]: > 2 µM
- IC50 [34]: > 2 µM
- IC50 [35]: > 2 µM
- IC50 [36]: > 2 µM
- IC50 [37]: > 2 µM
- IC50 [38]: > 2 µM
- IC50 [39]: > 2 µM
- IC50 [40]: > 2 µM
- IC50 [41]: > 2 µM
- IC50 [42]: > 2 µM
- IC50 [43]: > 2 µM
- IC50 [44]: > 2 µM
- IC50 [45]: > 2 µM
- IC50 [46]: > 2 µM
- IC50 [47]: 0.44 µM
- IC50 [48]: > 2 µM
- IC50 [49]: > 2 µM
- IC50 [50]: > 2 µM
- IC50 [51]: > 2 µM
- IC50 [52]: > 2 µM
- IC50 [53]: > 2 µM
- IC50 [54]: > 2 µM
- IC50 [55]: > 2 µM
- IC50 [56]: > 2 µM
- IC50 [57]: > 2 µM
- IC50 [58]: > 2 µM
- IC50 [59]: > 2 µM
- IC50 [60]: > 2 µM
- IC50 [61]: > 2 µM
- IC50 [62]: > 2 µM
- IC50 [63]: > 2 µM
- IC50 [64]: > 2 µM

SMILES: COc1cc(C)c(Sc2cnc(NC(=O)c3ccc(CNC(C)C(C)(C)C)cc3)s2)cc1C(=O)N1CCN(C(C)=O)CC1 (stereo not drawn)
- IC50 [1]: > 10.2 µM
- IC50 [2]: > 10.2 µM
- IC50 [3]: > 10.2 µM
- IC50 [4]: > 10.2 µM
- IC50 [5]: > 10.2 µM
- IC50 [6]: > 10.2 µM
- IC50 [7]: > 10.2 µM
- IC50 [8]: > 10.2 µM
- IC50 [9]: > 10.2 µM
- IC50 [10]: > 10.2 µM
- IC50 [11]: 10 µM
- IC50 [12]: > 10.2 µM
- IC50 [13]: > 10.2 µM
- IC50 [14]: > 10.2 µM

SMILES: Cc1ccc(NC(=O)c2cccc(C(C)(C)C#N)c2)cc1Nc1ccc2ncn(C)c(=O)c2c1
- IC50 [1]: > 4 µM
- IC50 [2]: > 4 µM
- IC50 [3]: > 4 µM
- IC50 [4]: > 4 µM
- IC50 [5]: > 4 µM
- IC50 [6]: 2.86 µM
- IC50 [7]: > 4 µM
- IC50 [8]: > 4 µM
- IC50 [9]: 3.96 µM
- IC50 [10]: > 4 µM
- IC50 [11]: > 4 µM
- IC50 [12]: > 4 µM
- IC50 [13]: > 4 µM
- IC50 [14]: > 4 µM
